Experimental data: US9580449B2, “Compositions and methods for the production of pyrimidine and pyridine compounds with BTK inhibitory activity” (Merck Patent GmbH, priority 2011, dated 2017)

Target: full-length human BTK (Homo sapiens (Human), UniProt Q06187)
Assay: BTK IC50 enzyme assay (microfluidic off-chip mobility shift kinase assay)
Assay type: biochemical
Details: incubated for 90 min. at 27 C; read-out: Time Dependent BTK Enzyme Assay IC50
Summary of the method: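 Read-out separates phosphorylated peptide product from substrate by charge/mass in a mobility shift format with full-length human BTK.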

Chain of full-length human BTK (Q06187 whole entry): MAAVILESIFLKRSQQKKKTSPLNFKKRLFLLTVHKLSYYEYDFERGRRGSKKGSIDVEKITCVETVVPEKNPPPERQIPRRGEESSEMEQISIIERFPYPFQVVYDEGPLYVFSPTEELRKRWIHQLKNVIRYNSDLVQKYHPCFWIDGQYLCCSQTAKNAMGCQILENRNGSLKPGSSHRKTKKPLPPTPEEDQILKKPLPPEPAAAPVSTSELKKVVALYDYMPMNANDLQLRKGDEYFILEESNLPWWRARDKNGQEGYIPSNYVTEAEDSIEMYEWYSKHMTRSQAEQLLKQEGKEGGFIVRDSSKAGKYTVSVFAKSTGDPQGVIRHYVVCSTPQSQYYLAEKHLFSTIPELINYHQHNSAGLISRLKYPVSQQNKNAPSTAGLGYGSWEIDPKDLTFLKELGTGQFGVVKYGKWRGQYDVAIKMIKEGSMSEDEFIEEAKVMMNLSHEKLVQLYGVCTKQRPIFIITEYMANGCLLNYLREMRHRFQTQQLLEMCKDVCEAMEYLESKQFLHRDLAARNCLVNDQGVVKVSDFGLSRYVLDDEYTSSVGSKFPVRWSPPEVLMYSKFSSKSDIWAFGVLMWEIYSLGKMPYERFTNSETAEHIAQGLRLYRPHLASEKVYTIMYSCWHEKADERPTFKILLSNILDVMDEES

IC50 [nM]	Compound
< 100	C=CC(=O)Nc1cccc(Oc2ncnc(N)c2-c2ccc(C(C)(C)O)cc2)c1 [A278, N-(3-((6-amino-5-(4-(2-hydroxypropan-2-yl)phenyl)pyrimidin-4-yl)oxy)phenyl)acrylamide]
< 100	C=CC(=O)N1CCC=C(c2c(N)ncnc2Oc2ccc(Oc3ccccc3)cc2)C1 [A279, 1-(3-(4-amino-6-(4-phenoxyphenoxy)pyrimidin-5-yl)-5,6-dihydropyridin-1(2H)-yl)prop-2-en-1-one]
< 100	C=CC(=O)Nc1ccc(Oc2ncnc(N)c2-c2ccc(Oc3ccccc3)cc2)cc1 [A280, N-(4-((6-amino-5-(4-phenoxyphenyl)pyrimidin-4-yl)oxy)phenyl)acrylamide]
< 1000	C=CC(=O)Nc1ccc(-c2cnccc2Oc2ccc(Oc3ccccc3)cc2)cc1 [A281, N-(4-(4-(4-phenoxyphenoxy)pyridin-3-yl)phenyl)acrylamide]
< 100	CN(C)C/C=C/C(=O)Nc1cccc(-c2cnccc2Oc2ccc(Oc3ccccc3)cc2)c1 [A282, (E)-4-(dimethylamino)-N-(3-(4-(4-phenoxyphenoxy)pyridin-3-yl)phenyl)but-2-enamide]
< 1000	C=CC(=O)Nc1cccc(-c2cncnc2Nc2ccc(Oc3ccccc3)cc2)c1 [A283, N-(3-(4-((4-phenoxyphenyl)amino)pyrimidin-5-yl)phenyl)acrylamide]
< 1000	C=CC(=O)N1CCCC(Nc2ncncc2-c2ccc(Oc3ccccc3)cc2)C1 (stereo not shown) [A284, 1-(3-((5-(4-phenoxyphenyl)pyrimidin-4-yl)amino)piperidin-1-yl)prop-2-en-1-one]
< 1000	C=CC(=O)Nc1cccc(Oc2ncnc(N)c2-c2ccc(C(=O)N3CCCC3)cc2)c1 [A285, N-(3-((6-amino-5-(4-(pyrrolidine-1-carbonyl)phenyl)pyrimidin-4-yl)oxy)phenyl)acrylamide]
< 1000	C=CC(=O)N1CCCC(CNc2ncnc(N)c2-c2ccc(Oc3ccccc3)cc2)C1 (stereo not shown) [A286, 1-(3-(((6-amino-5-(4-phenoxyphenyl)pyrimidin-4-yl)amino)methyl)piperidin-1-yl)prop-2-en-1-one]
< 1000	C=CC(=O)NCc1ccc(-c2cnccc2Oc2ccc(Oc3ccccc3)cc2)cc1 [A287, N-(4-(4-(4-phenoxyphenoxy)pyridin-3-yl)benzyl)acrylamide]
< 1000	C=CC(=O)N1CCC=C(c2cnccc2Oc2ccc(Oc3ccccc3)cc2)C1 [A288, 1-(4′-(4-phenoxyphenoxy)-5,6-dihydro-[3,3′-bipyridin]-1(2H)-yl)prop-2-en-1-one]
< 1000	C=CC(=O)Nc1cccc(Oc2ncnc(N)c2-c2ccc(OC(C)C)cc2)c1 [A289, N-(3-((6-amino-5-(4-isopropoxyphenyl)pyrimidin-4-yl)oxy)phenyl)acrylamide]
< 1000	CN(C)C/C=C/C(=O)Nc1ccc(Oc2ncnc(N)c2-c2ccc(Oc3ccccc3)cc2)cc1 [A290, (E)-N-(4-((6-amino-5-(4-phenoxyphenyl)pyrimidin-4-yl)oxy)phenyl)-4-(dimethylamino)but-2-enamide]
< 1000	C=CC(=O)Nc1cccc(Oc2ncnc(N)c2-c2cncc(OC)c2)c1 [A291, N-(3-((6-amino-5-(5-methoxypyridin-3-yl)pyrimidin-4-yl)oxy)phenyl)acrylamide]
< 1000	C=CC(=O)N1CCC(CNc2ncnc(N)c2-c2ccc(OCc3ccccc3)cc2)CC1 [A292, 1-(4-(((6-amino-5-(4-(benzyloxy)phenyl)pyrimidin-4-yl)amino)methyl)piperidin-1-yl)prop-2-en-1-one]
< 1000	C=CC(=O)Nc1cccc(Oc2ncnc(N)c2-c2c(F)cc(OCc3ccccc3)cc2F)c1 [A294, N-(3-((6-amino-5-(4-(benzyloxy)-2,6-difluorophenyl)pyrimidin-4-yl)oxy)phenyl)acrylamide]
< 1000	CC#CC(=O)Nc1cccc(-c2cnccc2Oc2ccc(Oc3ccccc3)cc2)c1 [A296, N-(3-(4-(4-phenoxyphenoxy)pyridin-3-yl)phenyl)but-2-ynamide]

The remaining lines, values behind:

Compound	IC50 [nM]
C=CC(=O)Nc1cccc(Oc2ncnc(N)c2-c2ccc(OCc3cccc(F)c3)cc2)c1 [A260, N-(3-((6-amino-5-(4-((3-fluorobenzyl)oxy)phenyl)pyrimidin-4-yl)oxy)phenyl)acrylamide]	< 100
C=CC(=O)Nc1cccc(Oc2ncnc(N)c2-c2cnc(OCc3ccccc3)nc2)c1 [A261, N-(3-((6-amino-2′-(benzyloxy)-[5,5′-bipyrimidin]-4-yl)oxy)phenyl)acrylamide]	< 100
C=CC(=O)N1CC=C(c2c(N)ncnc2Oc2ccc(Oc3ccccc3)cc2)CC1 [A263, 1-(4-(4-amino-6-(4-phenoxyphenoxy)pyrimidin-5-yl)-5,6-dihydropyridin-1(2H)-yl)prop-2-en-1-one]	< 1000
C=CC(=O)Nc1cccc(Oc2ncnc(N)c2-c2ccc(OCc3ccc(OC)cc3)cc2)c1 [A264, N-(3-((6-amino-5-(4-((4-methoxybenzyl)oxy)phenyl)pyrimidin-4-yl)oxy)phenyl)acrylamide]	< 100
Nc1ncnc(Oc2cccc(NC(=O)/C=C/CN3CCOCC3)c2)c1-c1ccc(Oc2ccccc2)cc1 [A265, (E)-N-(3-((6-amino-5-(4-phenoxyphenyl)pyrimidin-4-yl)oxy)phenyl)-4-morpholinobut-2-enamide]	< 100
C=CC(=O)Nc1cccc(-c2cnccc2Nc2ccc(Oc3ccccc3)cc2)c1 [A267, N-(3-(4-((4-phenoxyphenyl)amino)pyridin-3-yl)phenyl)acrylamide]	< 100
C=CC(=O)Nc1cccc(Oc2ncnc(N)c2-c2ccc(Oc3ccccc3)nc2)c1 [A268, N-(3-((6-amino-5-(6-phenoxypyridin-3-yl)pyrimidin-4-yl)oxy)phenyl)acrylamide]	< 100
C=CC(=O)N1CCCC(Nc2ncnc(N)c2-c2ccc(OCc3ccccc3)cc2)C1 (stereo not shown) [A269, 1-(3-((6-amino-5-(4-(benzyloxy)phenyl)pyrimidin-4-yl)amino)piperidin-1-yl)prop-2-en-1-one]	< 100
C=CC(=O)Nc1cccc(Oc2ccncc2-c2ccc(Oc3ccccc3)cc2)c1 [A270, N-(3-((3-(4-phenoxyphenyl)pyridin-4-yl)oxy)phenyl)acrylamide]	< 100
C=CC(=O)Nc1cccc(Oc2nc(N)ncc2-c2ccc(Oc3ccccc3)cc2)c1 [A271, N-(3-((2-amino-5-(4-phenoxyphenyl)pyrimidin-4-yl)oxy)phenyl)acrylamide]	< 100
C=CC(=O)Nc1cccc(-c2c(Oc3ccc(Oc4ccccc4)cc3)ccnc2C(N)=O)c1 [A272, 3-(3-acrylamidophenyl)-4-(4-phenoxyphenoxy)picolinamide]	< 100
C=CC(=O)N1CCC=C(c2c(N)ncnc2Nc2ccc(Oc3ccccc3)cc2)C1 [A273, 1-(3-(4-amino-6-((4-phenoxyphenyl)amino)pyrimidin-5-yl)-5,6-dihydropyridin-1(2H)-yl)prop-2-en-1-one]	< 100
Nc1ncnc(Oc2ccc(Oc3ccccc3)cc2)c1-c1cccc(NC(=O)/C=C/CN2CCOCC2)c1 [A274, (E)-N-(3-(4-amino-6-(4-phenoxyphenoxy)pyrimidin-5-yl)phenyl)-4-morpholinobut-2-enamide]	< 100
C=CC(=O)Nc1cccc(Oc2ncnc(N)c2-c2ccc(F)c(OC)c2)c1 [A277, N-(3-((6-amino-5-(4-fluoro-3-methoxyphenyl)pyrimidin-4-yl)oxy)phenyl)acrylamide]	< 100
